For 22 compounds, IC50 results are on record in patent publication US5712417A, “Inhibitors of retroviral proteases” (Abbott Laboratories, priority 1989, dated 1998).

Where a name gives a salt, the structure may show the parent alone.

Broadly, the IC50 is the point on the concentration scale where inhibition reaches its midpoint.

In one experiment the target is T1, HIV protease (Human immunodeficiency virus type 1 group M subtype B, UniProt P04585).
T1 construct: HIV protease consists of 99 amino acids and is evidently split off by itself from the pol polyprotein
Briefly: Inhibition of HIV protease (cleavage of H-Ser-Phe-Asn-Phe-Opr-Gln-Ile-OH, HPLC). The experiment is classed as biochemical.
Conditions: not given
In short, it runs like this:
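Substrate H-Ser-Phe-Asn-Phe-Opr-Gln-Ile-OH in MGTE buffer (MES, glycerol, Triton X-100, PMSF, pH 6) preincubated with inhibitor at 37 °C for 5-10 min, then reacted with protease at 35 °C for 2 h. RP18 HPLC at 215 nm; tetrapeptide fraction gives cleavage rate, IC50 where rate is halved.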
Regarding `CC(C)[C@H](NC(=O)[C@H](Cc1ccccc1)NC(=O)[C@H](O)[C@@H](O)[C@H](O)[C@H](O)CO)C(=O)N[C@@H](Cc1ccccc1)[C@@H](O)[C@H](O)[C@H](Cc1ccccc1)NC(=O)[C@@H](NC(=O)[C@H](Cc1ccccc1)NC(=O)[C@H](O)[C@@H](O)[C@H](O)[C@H](O)CO)C(C)C` [Example 110, N,N'-bis-<D-Gluconyl-L-phenylalanyl-L-valyl>-2S,5S-diamino-1,6-diphenylhexane-3R,4R-diol], half-maximal inhibition (IC50) required 1 nM.

Staying with this experiment, now noted: inhibitor concentration at which the cleavage rate is halved; Ex. 99; read-out: IC50.
As to `CC(C)[C@H](NC(=O)[C@@H](CC(=O)N1CCC(N)CC1)Cc1ccccc1)C(=O)N[C@@H](Cc1ccccc1)[C@@H](O)[C@H](O)[C@H](Cc1ccccc1)NC(=O)[C@@H](NC(=O)[C@@H](CC(=O)N1CCC(N)CC1)Cc1ccccc1)C(C)C` [Example 99, N,N'-bis-<3-(4-Amino-1-piperidylcarbonyl-2R-benzyl-propionyl-L-valyl>-2S,5S-diamino-1,6-diphenylhexane-3R,4R-dioldihydrochloride], the half-inhibitory concentration (IC50) was 15 nM.

The same experiment, now with this note: inhibitor concentration at which the cleavage rate is halved; pH 6, 2 hours; read-out: IC50.
Regarding `COc1ccc(C[C@H](N)C(=O)N[C@H](C(=O)N[C@@H](Cc2ccccc2)[C@H](O)[C@@H](O)[C@H](Cc2ccccc2)NC(=O)[C@@H](NC(=O)[C@@H](N)Cc2ccc(OC)cc2)C(C)C)C(C)C)cc1` [Example 76, N,N'-bis-<(O-Methyltyrosyl-L-valyl>-2S,5S-diamino-1,6-diphenylhexane-3S,4S-dioldihydrochloride], the IC50 came out at 0.29 nM.
For the compound `CC(C)[C@H](NC(=O)OC(C)(C)C)C(=O)N[C@H](Cc1ccccc1)[C@@H](O)[C@H](O)[C@@H](Cc1ccccc1)NC(=O)[C@@H](NC(=O)OC(C)(C)C)C(C)C` [Example 127, N,N'-bis-<tert.-Butoxycarbonyl-L-valyl>-2R,5R-diamino-1,6-diphenylhexane-3R,4R-diol], the IC50 stood at 46 nM.
On to `CC(C)C(NC(=O)C(CN)Cc1ccccc1)C(=O)NC(Cc1ccccc1)C(O)C(O)C(Cc1ccccc1)NC(=O)C(NC(=O)C(CN)Cc1ccccc1)C(C)C` (single isomer, unassigned) [Example 104, N,N'-bis-<(3-Amino-2-benzyl)-propionyl-L-valyl>-2S,5S-diamino-1,6-diphenylhexane-3R,4R-diol dihydrochloride], for which the IC50 was 24 nM.
With `CC(C)[C@H](NC(=O)[C@H](Cc1cccc2ccccc12)CS(=O)(=O)C(C)(C)C)C(=O)NCCCCNC(=O)[C@@H](NC(=O)[C@H](Cc1cccc2ccccc12)CS(=O)(=O)C(C)(C)C)C(C)C` [Example 146, N,N'-bis-<(2S-(1,1-Dimethylethylsulfonylmethyl)-3-(1-naphthyl)-propionyl)-L-valyl>-1,4-diaminobutane], the concentration for half-maximal inhibition (IC50) turned out to be 100 nM.
Consider `CC(C)[C@H](NC(=O)[C@@H](N)Cc1ccccc1)C(=O)N[C@@H](CCc1ccccc1)[C@@H](O)[C@H](O)[C@H](CCc1ccccc1)NC(=O)[C@@H](NC(=O)[C@@H](N)Cc1ccccc1)C(C)C` [Example 148, N,N'-bis-(L-Phenylalanyl-L-valyl)-3S,6S-diamino-1,8-diphenyloctane-4R,5R-diol dihydrochloride], for which the 50% inhibitory concentration (IC50) was determined as 36 nM.
For `CC(C)[C@H](NC(=O)CSc1ccncc1)C(=O)N[C@@H](Cc1ccccc1)[C@@H](O)[C@H](O)[C@H](Cc1ccccc1)NC(=O)[C@@H](NC(=O)CSc1ccncc1)C(C)C` [Example 59, N,N'-bis-<(4-Pyridylthio)-acetyl-L-valyl>-2S,5S-diamino-1,6-diphenylhexane-3R,4R-diol], the 50% inhibitory concentration (IC50) came out at 47 nM.
Still for that read-out and setting: as for `CC(C)[C@H](NC(=O)[C@H](Cc1ccccc1)NC(=O)OC(C)(C)C)C(=O)N[C@@H](Cc1ccccc1)[C@H](O)[C@@H](O)[C@H](Cc1ccccc1)NC(=O)[C@@H](NC(=O)[C@H](Cc1ccccc1)NC(=O)OC(C)(C)C)C(C)C` [Example 6, N,N'-bis-(tert.-Butoxycarbonyl-L-phenylalanyl-L-valyl)-2S,5S-diamino-1,6-diphenylhexane-3S,4S-diol], the figure is 8.8 nM; as for `CC(C)[C@H](NC(=O)[C@H](Cc1ccccc1)NC(=O)OC(C)(C)C)C(=O)N[C@H](Cc1ccccc1)[C@@H](O)[C@H](O)[C@@H](Cc1ccccc1)NC(=O)[C@@H](NC(=O)[C@H](Cc1ccccc1)NC(=O)OC(C)(C)C)C(C)C` [Example 33, N,N'-bis-(tert.-Butoxycarbonyl-L-phenylalanyl-L-valyl)-2R,5R-diamino-1,6-diphenylhexane-3R,4R-diol], 20000 nM.
For the compound `CC(C)[C@H](NC(=O)[C@H](CC1CCCCC1)NC(=O)OC(C)(C)C)C(=O)N[C@@H](Cc1ccccc1)[C@@H](O)[C@H](O)[C@H](Cc1ccccc1)NC(=O)[C@@H](NC(=O)[C@H](CC1CCCCC1)NC(=O)OC(C)(C)C)C(C)C` [Example 115, N,N'-bis-<tert.-Butyloxycarbonyl-L-cyclohexylalanyl-L-valyl>-2S,5S-diamino-1,6-diphenylhexane-3R,4R-diol], the IC50 came to 2200 nM.
Same read-out and setting: as for `CC(C)[C@H](N)C(=O)N[C@@H](Cc1ccccc1)[C@H](O)[C@@H](O)[C@H](Cc1ccccc1)NC(=O)[C@@H](N)C(C)C` [Example 131, N,N'-bis-<L-Valyl>-2S,5S-diamino-1,6-diphenylhexane-3S,4S-diol dihydrochloride], the figure is 40000 nM; as for `CC(C)[C@H](NC(=O)[C@H](CCC(=O)O)NC(=O)OC(C)(C)C)C(=O)N[C@@H](Cc1ccccc1)[C@H](O)[C@@H](O)[C@H](Cc1ccccc1)NC(=O)[C@@H](NC(=O)[C@H](CCC(=O)O)NC(=O)OC(C)(C)C)C(C)C` [Example 83, N,N,-bis-<tert.-Butoxycarbonyl-L-glutamyl-L-valyl>-2S,5S-diamino-1,6-diphenylhexane-3S,4S-diol], 10 nM.
The same measure, in the same setting: as for `CC(C)[C@H](NC(=O)[C@@H](N)CCCCN)C(=O)N[C@@H](Cc1ccccc1)[C@@H](O)[C@H](O)[C@H](Cc1ccccc1)NC(=O)[C@@H](NC(=O)[C@@H](N)CCCCN)C(C)C` [Example 10, N,N'-bis-(L-lysyl-L-valyl)-2S,5S-diamino-1,6-diphenylhexane-3R,4R-diol tetrahydrochloride], the figure is 17 nM.
For `CC(C)[C@H](NC(=O)[C@H](Cc1ccccc1)NC[C@@]1(O)OC[C@@H](O)[C@@H](O)[C@@H]1O)C(=O)N[C@@H](Cc1ccccc1)[C@H](O)[C@@H](O)[C@H](Cc1ccccc1)NC(=O)[C@@H](NC(=O)[C@H](Cc1ccccc1)NC[C@@]1(O)OC[C@@H](O)[C@@H](O)[C@@H]1O)C(C)C` [Example 109, N,N'-bis-<N-(β-D-1-Deoxyfructos-1-yl-L-phenylalanyl-L-valyl>-2S,5S-diamino-1,6-diphenylhexane-3S,4S-diol diacetate], the IC50 is 5 nM.
Take `CC(C)[C@H](NC(=O)CNC(=O)OC(C)(C)C)C(=O)N[C@@H](Cc1ccccc1)[C@@H](O)[C@H](O)[C@H](Cc1ccccc1)NC(=O)[C@@H](NC(=O)CNC(=O)OC(C)(C)C)C(C)C` [Example 86, N,N'-bis-<tert.-Butoxycarbonylglycyl-L-valyl>-2S,5S-diamino-1,6-diphenylhexane-3R,4R-diol]: the concentration for half-maximal inhibition (IC50) amounted to 2.2 nM.
The same measure, in the same setting: as for `CC(C)C[C@H](N)C(=O)N[C@H](C(=O)N[C@@H](Cc1ccccc1)[C@H](O)[C@@H](O)[C@H](Cc1ccccc1)NC(=O)[C@@H](NC(=O)[C@@H](N)CC(C)C)C(C)C)C(C)C` [Example 87, N,N'-bis-<L-Leucyl-L-valyl>-2S,5S-diamino-1,6-diphenyl-hexane-3S,4S-dioldihydrochloride], the figure is 1.6 nM; as for `CC(C)[C@H](NC(=O)[C@@H](N)Cc1ccccc1)C(=O)NCCCCNC(=O)[C@@H](NC(=O)[C@@H](N)Cc1ccccc1)C(C)C` [Example 145, N,N'-bis-<L-Phenylalanyl-L-valyl>-1.4-diaminobutane dihydrochloride], 95 nM.
On the same count and under the same terms, as for `CC(C)[C@H](NC(=O)C(Cc1ccccc1)CS(=O)(=O)N1CCC(NC(=O)OC(C)(C)C)CC1)C(=O)N[C@@H](Cc1ccccc1)[C@@H](O)[C@H](O)[C@H](Cc1ccccc1)NC(=O)[C@@H](NC(=O)C(Cc1ccccc1)CS(=O)(=O)N1CCC(NC(=O)OC(C)(C)C)CC1)C(C)C` (stereo partly drawn) [Example 98, N,N'-bis-<2-Benzyl-3-(4-tert.-butoxycarbonylamino-1-piperidylsulfonyl)-propionyl-L-valyl>-2S,5S-diamino-1,6-diphenylhexane-3R,4R-diol], the figure is 1000 nM.

The experiment is the same for the next values; noted with them: inhibitor concentration at which the cleavage rate is halved; unit as printed for Ex. 8; read-out: IC50.
Regarding `CC(C)[C@H](NC(=O)OC(C)(C)C)C(=O)N[C@@H](Cc1ccccc1)[C@H](O)[C@@H](O)[C@H](Cc1ccccc1)NC(=O)[C@@H](NC(=O)OC(C)(C)C)C(C)C` [Example 8, N,N'-bis-(tert.-Butoxycarbonyl-L-valyl)-2S,5S-diamino-1,6-diphenylhexane-3S,4S-diol], the IC50 is 30000 nM.

The experiment is the same for the next values; noted with them: inhibitor concentration at which the cleavage rate is halved; unit as printed for Ex. 13; read-out: IC50.
For the compound `CC(C)[C@H](NC(=O)[C@H](Cc1cccc2ccccc12)CS(=O)(=O)C(C)(C)C)C(=O)N[C@@H](Cc1ccccc1)[C@@H](O)[C@H](O)[C@H](Cc1ccccc1)NC(=O)[C@@H](NC(=O)[C@H](Cc1cccc2ccccc12)CS(=O)(=O)C(C)(C)C)C(C)C` [Example 13, N,N'-bis-<(2S-(1,1-Dimethylethylsulfonylmethyl)-3-(1-naphthyl)-propionyl)-L-valyl>-2S,5S-diamino-1,6-diphenylhexane-3R,4R-diol], the IC50 amounted to 1.3 nM.

Still in this experiment, the particulars now being: pH 6; read-out: IC50.
Consider `CC(C)[C@H](NC(=O)[C@H](Cc1ccccc1)NC(=O)[C@H]1CC[C@@H](N)CC1)C(=O)N[C@@H](Cc1ccccc1)[C@H](O)[C@@H](O)[C@H](Cc1ccccc1)NC(=O)[C@@H](NC(=O)[C@H](Cc1ccccc1)NC(=O)[C@H]1CC[C@@H](N)CC1)C(C)C` [Example 49, N,N'-bis-(4Z-Aminocyclohexanecarbonyl-L-phenylalanyl-L-valyl)-2S, 5S-diamino-1,6-diphenyl-3S, 5S-diol dihydrochloride], for which the half-maximal inhibitory concentration (IC50) was 1.2 nM.
